From patent US20260091026A1, “METHODS OF TREATING INFLAMMATORY DISEASES” (INTERLINE THERAPEUTICS, INC., priority 2023, published 2026)

What was measured:
RIPK2 (KD)/XIAP (BIR2) = target: T1, RIPK2 (KD)/XIAP (BIR2) (Homo sapiens, UniProt O43353); assay: RIPK2-XIAP binding competition PPI assay (TR-FRET); settings: for Emax: 50 nM of GSK583 = -100% activity, read-out: PPI Amax; for IC50: GST-RIPK2 / His-XIAP (BIR2)-avi, 120 min at 23° C.
T1 construct: made in house; host or cells: baculovirus-infected Sf9 cells
T1 sequence (O43353 1-310): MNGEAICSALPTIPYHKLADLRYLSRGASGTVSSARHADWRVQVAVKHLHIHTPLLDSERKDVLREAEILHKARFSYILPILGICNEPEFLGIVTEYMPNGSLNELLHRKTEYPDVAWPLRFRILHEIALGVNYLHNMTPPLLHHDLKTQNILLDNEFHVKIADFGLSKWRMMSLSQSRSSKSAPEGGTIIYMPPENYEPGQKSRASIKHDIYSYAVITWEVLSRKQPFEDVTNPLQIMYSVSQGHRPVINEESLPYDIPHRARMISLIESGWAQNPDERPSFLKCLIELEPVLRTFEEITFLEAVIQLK
Procedure, shortened: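 TR-FRET competition between GST-RIPK2 (aa 1-310, 1 nM) and His-XIAP BIR2-avi (aa 152-231, 25 nM), both Sf9-expressed, detected with anti-His-XL665 and anti-GST-Tb in Tris pH 7.5 buffer with MgCl2, DTT and vanadate. Incubation was 120 min at 23 °C; the 665/520 nm ratio was normalized to no inhibitor (0%) and 50 nM GSK583 (−100%).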

[1] = tested on: THP1-Dual cells, NF-κB pathway (SEAP); assay: THP-1 Dual cell SEAP assay (L18-MDP stimulated); type: cell-based; settings: Homo sapiens, 10 ng/mL L18-MDP, 20-24 h, SEAP readout, read-out: IFNγ THP1 IC50
Procedure, shortened: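 About 25,000 THP1-Dual cells per well were preincubated 30 min with serially diluted compound, then stimulated overnight (20-24 h, 37 °C) with 10 ng/mL L18-MDP (final). NF-κB-driven SEAP in supernatant was read with QUANTI-Blue at OD 620-655 nm after 2 h; % inhibition versus DMSO/L18-MDP wells was fitted by non-linear regression to give IC50.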

Compound: COc1cc2ncc(-n3cc(C(=O)NCc4ccccc4)c(C)n3)n2cc1S(=O)(=O)C(C)(C)C [Example 148, N-benzyl-1-(6-(tert-butylsulfonyl)-7-methoxyimidazo[1,2-a]pyridin-3-yl)-3-methyl-1H-pyrazole-4-carboxamide]
- Emax (RIPK2 (KD)/XIAP (BIR2)): ≥ 80%
- IC50 (RIPK2 (KD)/XIAP (BIR2)): 0.1 to 1 µM
- IC50 [1]: > 2.5 µM

Compound: COc1cc2ncc(-c3cc(NC(=O)OCc4ccccc4)n(C)n3)n2cc1S(=O)(=O)C(C)(C)C [Example 149]
- Emax (RIPK2 (KD)/XIAP (BIR2)): ≥ 80%
- IC50 (RIPK2 (KD)/XIAP (BIR2)): 0.01 to 0.1 µM
- IC50 [1]: 0.1 to 0.5 µM

Compound: COc1cc2ncc(-c3cc(NC(=O)O[C@@H](C)c4ccccc4)n(C)n3)n2cc1S(=O)(=O)C(C)(C)C [Example 150, (S)-1-phenylethyl (3-(6-(tert-butylsulfonyl)-7-methoxyimidazo[1,2-a]pyridin-3-yl)-1-methyl-1H-pyrazol-5-yl)carbamate]
- Emax (RIPK2 (KD)/XIAP (BIR2)): ≥ 80%
- IC50 (RIPK2 (KD)/XIAP (BIR2)): 0.1 to 1 µM
- IC50 [1]: 0.5 to 2.5 µM

Compound: COc1cc2ncc(-c3cc(NC(=O)O[C@H](C)c4ccccc4)n(C)n3)n2cc1S(=O)(=O)C(C)(C)C [Example 151, (R)-1-phenylethyl (3-(6-(tert-butylsulfonyl)-7-methoxyimidazo[1,2-a]pyridin-3-yl)-1-methyl-1H-pyrazol-5-yl)carbamate]
- Emax (RIPK2 (KD)/XIAP (BIR2)): ≥ 80%
- IC50 (RIPK2 (KD)/XIAP (BIR2)): < 0.01 µM
- IC50 [1]: < 0.1 µM

Compound: C[C@H](CO)COc1cc2ncc(-c3cc(NC(=O)Cc4ccccc4Cl)n(C)n3)n2cc1S(=O)(=O)C(C)(C)C [Example 187, (R)-N-(3-(6-(tert-butylsulfonyl)-7-(3-hydroxy-2-methylpropoxy)imidazo [1,2-a]pyridin-3-yl)-1-methyl-1H-pyrazol-5-yl)-2-(2-chlorophenyl)acetamide]
- Emax (RIPK2 (KD)/XIAP (BIR2)): ≥ 80%
- IC50 (RIPK2 (KD)/XIAP (BIR2)): < 0.01 µM
- IC50 [1]: 0.1 to 0.5 µM

Compound: C[C@@H](CO)COc1cc2ncc(-c3cc(NC(=O)Cc4ccccc4Cl)n(C)n3)n2cc1S(=O)(=O)C(C)(C)C [Example 188, (S)-N-(3-(6-(tert-butylsulfonyl)-7-(3-hydroxy-2-methylpropoxy)imidazo [1,2-a]pyridin-3-yl)-1-methyl-1H-pyrazol-5-yl)-2-(2-chlorophenyl) acetamide]
- Emax (RIPK2 (KD)/XIAP (BIR2)): ≥ 80%
- IC50 (RIPK2 (KD)/XIAP (BIR2)): < 0.01 µM
- IC50 [1]: 0.1 to 0.5 µM

Compound: CNc1nccn2c(-c3cc(C(=O)NCc4ccccc4)n(C)n3)cnc12 [Example 189, N-benzyl-1-methyl-3-(8-(methylamino)imidazo[1,2-a]pyrazin-3-yl)-1H-pyrazole-5-carboxamide]
- Emax (RIPK2 (KD)/XIAP (BIR2)): 55 to 80%
- IC50 (RIPK2 (KD)/XIAP (BIR2)): > 1 µM
- IC50 [1]: > 2.5 µM

Compound: CNc1nccn2c(-c3cc(C(=O)N[C@H](C)c4ccccc4)n(C)n3)cnc12 [Example 190, (R)-1-methyl-3-(8-(methylamino)imidazo [1,2-a]pyrazin-3-yl)-N-(1-phenylethyl)-1H-pyrazole-5-carboxamide]
- Emax (RIPK2 (KD)/XIAP (BIR2)): 30 to 55%
- IC50 (RIPK2 (KD)/XIAP (BIR2)): > 1 µM
- IC50 [1]: > 2.5 µM

Compound: COc1cc2ncnc(-c3cc(C(=O)NCc4ccccc4)n(C)n3)c2cc1S(=O)(=O)C(C)(C)C [Example 191, N-benzyl-3-(6-(tert-butylsulfonyl)-7-methoxyquinazolin-4-yl)-1-methyl-1H-pyrazole-5-carboxamide]
- Emax (RIPK2 (KD)/XIAP (BIR2)): ≥ 80%
- IC50 (RIPK2 (KD)/XIAP (BIR2)): 0.1 to 1 µM
- IC50 [1]: > 2.5 µM

Compound: COc1cc2ncnc(-c3cc(C(=O)N[C@H](C)c4ccccc4)n(C)n3)c2cc1S(=O)(=O)C(C)(C)C [Example 192, (R)-3-(6-(tert-butylsulfonyl)-7-methoxyquinazolin-4-yl)-1-methyl-N-(1-phenylethyl)-1H-pyrazole-5-carboxamide]
- Emax (RIPK2 (KD)/XIAP (BIR2)): ≥ 80%
- IC50 (RIPK2 (KD)/XIAP (BIR2)): 0.01 to 0.1 µM
- IC50 [1]: 0.5 to 2.5 µM
